The text below walks through data of patent publication US20240279191A1, “SMALL MOLECULE INHIBITORS OF TEAD-YAP” (The General Hospital Corporation, priority 2021, published 2024).

Broadly, the GI50 is the concentration giving 50% growth inhibition. The term CLint scaled denotes the rate of metabolic loss divided by the concentration. A low value points to slow turnover. As usually defined, the logD is lipophilicity at a set pH, counting ionised and neutral species. Low values mean lower lipophilicity, high ones higher lipophilicity. Usually bioavailability stands for the share of a dose that reaches the circulation, judged against a reference dose that is usually intravenous. The AUC(0-t) is the area under the concentration-time curve up to a stated or last time point. As a reminder, the MRT is the average time that molecules of a dose stay in the body. A word on the AUC(0-inf): it is the area under the concentration-time curve extrapolated to infinity. A higher AUC(0-inf) goes with more exposure. In general, Tmax refers to the time from dosing to the highest level.

One data set deals with TEAD. Kind of data set: WB primary assay (SAR tables F1, F3A). The format is biochemical.
A further data set in a line: Metabolic stability MLM. The following applies: for Met stab MLM, 15 min / Met stab MLM, 60 min: % parent remained per Table G2.
For a further data set, the system named is H226. Kind of data set: H226 growth inhibition (SAR tables). The format is cell-based. The following applies: for GI50: Homo sapiens, NCI-H226.
In a further data set the test system is KNS62. Kind of data set: KNS62 growth inhibition (SAR tables). The format is cell-based.
The nature of data set [1]: Aqueous solubility (Aq Sol). The format is physicochemical.
Data set [2] is described as follows: Metabolic stability in mouse hepatic microsomes (Scripps Florida DMPK Core). The format is in vitro ADME. The following applies: for half-life / microsomal CLint: mouse, liver microsomes; for half-life: 1 mg/mL hepatic microsomes; for microsomal CLint: hepatic microsomes, read-out: Intrinsic Clearance, Mouse (Clint); for metabolic stability (in words): Tables E1 and E2, human and mouse microsomes. (Microsomes from liver hold many membrane-bound enzymes, among them those of drug oxidation.)

For another data set, the system named is H226 cells. Kind of data set: Cell proliferation assay (MTT), H226. The note with it: 6 days, FIG. 8C.
For another data set, the target named is TEAD2 (Homo sapiens, UniProt Q15562). Kind of data set: Inhibition of TEAD2 auto-palmitoylation in vitro. The following applies: FIG. 1; 0.05 and 0.5 μM for 30 mins.
The nature of data set [3]: in vitro. The note with it: human.
The nature of data set [4]: in vitro. The following applies: mouse.
A further data set is described as follows: physchem. The note with it: pH 7.4.
The nature of data set [5]: Metabolic stability in human hepatic microsomes (Scripps Florida DMPK Core). The note with it: liver microsomes; for half-life: 1 mg/mL hepatic microsomes; for microsomal CLint: hepatic microsomes, read-out: Intrinsic Clearance, Human (Clint). The format is in vitro ADME.
The nature of data set [6]: Metabolic stability CLint, human (Tables H1, H2).
Data set [7] is described as follows: Metabolic stability CLint, mouse (Tables H1, H2).
Another data set in a line: logD 7.4. The following applies: pH 7.4.
Data set [8] is described as follows: Pharmacokinetics / oral bioavailability in male CD-1 mice. The format is in vivo. The note with it: for AUC(0-inf): Table F2A; for half-life: read-out: t1/2, β (converted). From the text:
Example G. Oral Bioavailability of MGH-CP-715 in Male CD-1Mice

Where [9] appears, read: male, CD-1, mouse, in vivo, 1 mg/Kg IV.
Where [10] appears, read: male, CD-1, mouse, in vivo, 10 mg/Kg PO.

Read-outs that look alike come from different tables or passages of the source.

TEAD2, sequence (Q15562 whole entry): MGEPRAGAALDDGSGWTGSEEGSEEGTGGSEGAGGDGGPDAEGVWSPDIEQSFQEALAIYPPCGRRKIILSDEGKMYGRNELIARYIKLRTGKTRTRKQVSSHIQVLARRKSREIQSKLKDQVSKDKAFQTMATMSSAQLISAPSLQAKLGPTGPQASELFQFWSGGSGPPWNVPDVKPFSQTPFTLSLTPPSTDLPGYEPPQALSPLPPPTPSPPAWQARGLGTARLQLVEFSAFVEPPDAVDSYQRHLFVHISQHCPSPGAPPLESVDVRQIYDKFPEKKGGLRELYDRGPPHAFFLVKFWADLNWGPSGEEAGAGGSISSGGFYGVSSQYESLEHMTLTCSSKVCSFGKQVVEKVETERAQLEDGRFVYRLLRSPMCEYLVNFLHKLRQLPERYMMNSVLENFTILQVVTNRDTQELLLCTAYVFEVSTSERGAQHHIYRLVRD

Regarding `O=C(Oc1ccccc1)N1CCN(Cc2cccc(OCCC3CCCCC3)c2)CC1` [MGH-CP-718], in the data set on TEAD, the “activity in primary assay (in words)” value was “inactive”, the “WB: % inh. @ 1 μM” value is given as −4% and the “WB: % inh. @ 10 μM” value is recorded as 11%. Also, in the data set “Metabolic stability MLM” (15 min), the Met stab MLM, 15 min turned out to be 59%. Besides, the Met stab MLM, 60 min in the data set “Metabolic stability MLM” (60 min) worked out at 13%. Moreover, in the data set “Metabolic stability MLM” (mouse, microsomes), the “MLM stability (in words)” value is “moderately stable”.

Consider `C[C@@H]1CN(C(=O)Nc2ccccc2)[C@@H](C)CN1C(=O)c1cccc(OCCC2CCCCC2)c1` [MGH-CP-709], for which, in the data set with TEAD, the “WB: % inh. @ 1 μM” value was 45% and the “WB: % inh. @ 10 μM” value was determined as 77%. In addition, the GI50 in the data set with H226 turned out to be 1970 nM. In addition, the Met stab MLM, 15 min in “Metabolic stability MLM” (15 min) amounted to 26%. In addition, the Met stab MLM, 60 min in the data set “Metabolic stability MLM” (60 min) is below 5%. Also, in the data set with KNS62, the “KNS62: value at 1 μM” value came to 28 and the “KNS62: value at 10 μM” value worked out at 46. Further, the “Aq Sol” value in data set [1] came out at 2 µM.

With `O=C(Nc1ccccc1)N1CCN(C(=O)c2cccc(OCCC3CCOCC3)c2)CC1` [TM45, N-phenyl-4-(3-(2-(tetrahydro-2H-pyran-4-yl)ethoxy)benzoyl)piperazine-1-carboxamide], in data set [2], the half-life was 11.2 min and the microsomal CLint worked out at 62 µL/min/mg. Moreover, the “H226 anti-proliferative potency relative to TM2 (in words)” value with H226 cells is “less potent than TM2”. Besides, the “inhibition of TEAD2 auto-palmitoylation (in words)” value at TEAD2 is “significantly decrease the activities”.

Turning to `O=C(Nc1ccccc1)N1C[C@@H]2C[C@H]1CN2C(=O)c1cccc(OCCC2CCCCC2)c1` [MGH-CP-717], in the data set on TEAD, the “activity in primary assay (in words)” value was “inactive”, the “WB: % inh. @ 1 μM” value is on record as −2% and the “WB: % inh. @ 10 μM” value was 22%. Further, the “MLM stability (in words)” value in the data set “Metabolic stability MLM” was “poor”. The Met stab MLM, 15 min in the data set “Metabolic stability MLM” (15 min) stood at 6%. In “Metabolic stability MLM” (60 min), the Met stab MLM, 60 min is below 5%.

`NC(=O)c1cncc(OC(=O)N2CCC(CCc3cccc(C(=O)N4CCCC4)c3)CC2)c1`: the CLint scaled in the data set “in vitro [3]” worked out at 86 mL/min/kg; in the data set “in vitro [4]” it was 90 mL/min/kg. Further, in “physchem”, the logD amounted to 2.6.

Regarding `Nc1cccc(NC(=O)N2CCN(C(=O)c3cccc(OCCC4CCCCC4)c3)CC2)c1` [TM93], in data set [2], the “metabolic stability (in words)” value is reported as “improved metabolic stability”, the half-life was 16.7 min and the microsomal CLint is 41 µL/min/mg. Also, in data set [5], the half-life came out at 11.1 min and the microsomal CLint turned out to be 62 µL/min/mg.

Turning to `O=C(Nc1ccccc1)N1CCN(C2(c3cccc(OCCc4ccccc4)c3)COC2)CC1` [TM97], in data set [2], the half-life turned out to be 1.7 min and the microsomal CLint is 415 µL/min/mg.

`O=C(Nc1ccccc1)N1CCN(C(=O)c2ccnc(OCCC3CCCCC3)c2)CC1` [MGH-CP-716]: in the data set with TEAD, the “WB: % inh. @ 1 μM” value is recorded as 59% and the “WB: % inh. @ 10 μM” value came to 96%. In the data set with H226, the “activity in cellular assays (in words)” value is recorded as “active” and halving of growth (GI50) required 236 nM. Besides, the “MLM stability (in words)” value in the data set “Metabolic stability MLM” is “not improved”. Also, the Met stab MLM, 15 min in the data set “Metabolic stability MLM” (15 min) is 40%. Moreover, the Met stab MLM, 60 min in “Metabolic stability MLM” (60 min) was below 5%. Further, in the data set with KNS62, the “KNS62: value at 1 μM” value came to 54 and the “KNS62: value at 10 μM” value was determined as 60.

Turning to `CC1CN(C(=O)Nc2ccccc2)CCN1C(=O)c1cccc(OCCC2CCCCC2)c1` (stereo not drawn) [MGH-CP-710], in the data set with TEAD, the “WB: % inh. @ 1 μM” value is 54% and the “WB: % inh. @ 10 μM” value was 81%. Also, the GI50 in the data set with H226 turned out to be 1040 nM. Also, the Met stab MLM, 15 min in “Metabolic stability MLM” (15 min) was 41%. The Met stab MLM, 60 min in “Metabolic stability MLM” (60 min) was below 5%. In addition, in the data set with KNS62, the “KNS62: value at 1 μM” value is given as 35 and the “KNS62: value at 10 μM” value is 51. The “Aq Sol” value in data set [1] is below 2 µM.

Regarding `O=C(NCCc1cccc(F)c1)C1CCN(C(=O)Oc2ccccc2)CC1`, the CLint scaled stood at 54 mL/min/kg in data set [6] and 87 mL/min/kg in [7]. Moreover, in “logD 7.4”, the logD amounted to 2.59.

For `O=C(Nc1ccccc1)N1CCN(Cc2cccc(OCCC3CCCCC3)c2)CC1` [MGH-CP-715], the “F (oral bioavailability)” value in data set [8] (10 mg/Kg PO versus 1 mg/Kg IV) is around 5.7%. Besides, the bioavailability in data set [8] (male, CD-1, mouse, in vivo, oral, 10 mg/Kg, 10 mg/Kg PO versus 1 mg/Kg IV, read-out: F (oral bioavailability)) was around 5%. Also, in [8] (setting [9]), the AUC(0-t) worked out at 663 ng·h/mL, the MRT came to 88.2 min, the clearance is 22.6 mL/min/kg and the AUC(0-inf) was determined as 736 ng·h/mL. The half-life in data set [8] (setting [9]) is 223 min. The Cmax in data set [8] (male, CD-1, mouse, in vivo, 1 mg/Kg IV, read-out: C0/Cmax (C0)) was determined as 834 ng/mL. Moreover, the Vd in data set [8] (male, CD-1, mouse, in vivo, 1 mg/Kg IV, read-out: VSS) turned out to be 3.61 L/kg. Moreover, in [8] (setting [10]), the AUC(0-t) is 394 ng·h/mL, the MRT was 157 min, the Tmax came to 15 min and the AUC(0-inf) amounted to 422 ng·h/mL. Moreover, the half-life in data set [8] (setting [10]) is 112 min. Moreover, in data set [8] (male, CD-1, mouse, in vivo, 10 mg/Kg PO, read-out: C0/Cmax (Cmax)), the Cmax is 108 ng/mL. Besides, in data set [8] (mouse, in vivo), the “clearance (in words)” value is listed as “low” and the “volume of distribution (in words)” value is listed as “high”. Moreover, in the data set on TEAD, the “WB: % inh. @ 1 μM” value is on record as 35% and the “WB: % inh. @ 10 μM” value was 95%. Besides, the “H226: value at 1 μM” value with H226 (1 μM) is listed as 16. In the data set on H226 (10 μM), the “H226: value at 10 μM” value turned out to be 69. Also, the “% Parent remained MLM, 15 min” value in “Metabolic stability MLM” (15 min, Table G2) is 66%. Also, the Met stab MLM, 15 min in “Metabolic stability MLM” (15 min) came to 66%. In addition, the “% Parent remained MLM, 60 min” value in the data set “Metabolic stability MLM” (60 min, Table G2) was 15%. For the same compound, in “Metabolic stability MLM” (60 min), the Met stab MLM, 60 min is 15%. In the data set on KNS62, the “KNS62: value at 1 μM” value is on record as 4 and the “KNS62: value at 10 μM” value is recorded as 57. The “Aq Sol” value in data set [1] was below 2 µM.

As for `O=C(Oc1ccccc1)N1CCN(C(=O)c2cccc(OCCC3CCCCC3)c2)CC1` [MGH-CP-714], in the data set on TEAD, the “WB: % inh. @ 1 μM” value amounted to 16% and the “WB: % inh. @ 10 μM” value came to 94%. This compound displayed a GI50 in the data set on H226 of 2640 nM. The Met stab MLM, 15 min in “Metabolic stability MLM” (15 min) came to 29%. For the same compound, the Met stab MLM, 60 min in the data set “Metabolic stability MLM” (60 min) is below 5%. Also, in the data set with KNS62, the “KNS62: value at 1 μM” value was 10 and the “KNS62: value at 10 μM” value came to 48. For the same compound, the “Aq Sol” value in data set [1] was below 2 µM.

On to `Nc1ccc(NC(=O)N2CCN(C(=O)c3cccc(OCCC4CCCCC4)c3)CC2)cc1` [TM112, N-(4-aminophenyl)-4-(3-(2-cyclohexylethoxy)benzoyl)piperazine-1-carboxamide], for which the “H226 anti-proliferative potency relative to TM2 (in words)” value in the data set on H226 cells was “less potent than TM2”.

Take `O=C(Nc1ccccc1)N1CCN([S+]([O-])c2cccc(OCCc3ccccc3)c2)CC1` (stereo not drawn) [TM100]: in [2], the “metabolic stability (in words)” value is “improved metabolic stability”, the half-life worked out at 9.6 min and the microsomal CLint worked out at 72 µL/min/mg. In data set [5], the half-life is 5.8 min and the microsomal CLint was 120 µL/min/mg.

As for `O=C(Nc1ncccn1)N1CCN(C(=O)c2cccc(OCCC3CCCCC3)c2)CC1` [TM23], the CLint scaled in data set [6] worked out at 109 mL/min/kg; in data set [7], 156 mL/min/kg. Also, the logD in the data set “logD 7.4” was 2.38.

As for `O=C(Nc1ccccc1)C1CCN(C(=O)Oc2cccnc2)CC1`, the CLint human result in [6] is “no depletion (stable)”. For the same compound, the CLint scaled in data set [7] turned out to be 47 mL/min/kg. Also, the logD in the data set “logD 7.4” is 2.16.
